Patent publication EP0343643B1, “Arylmethylenyl derivatives of thiazolidnones, imidazolidinones and oxazolidinones useful as antiallergy agents and antiinflamatory agents” (WARNER-LAMBERT COMPANY, priority 1988, dated 1989)

Columns and labels:
human basophils = experiment: Histamine release from human basophils (HHB), anti-IgE challenge; format: cell-based; set-up: key to HHB % Inhibition of Histamine Release at 33 µM: *: Indicates not active at 33 µM; settings: 33 µM drug, human basophils challenged with anti-IgE
Source text: HISTAMINE RELEASE FROM HUMAN BASOPHILS (hereinafter HHB)
The HHB assay quantitates active histamine release, and its inhibition by drugs, from basophils of human blood. Thus, the assay provides evaluation of the compounds of formula I for treating the conditions or diseases as is the present invention. As described herein the assay includes modifications of the method described by R. P. Siraganian in "An Automated Continuous-Flow System for the Extraction and Fluorometric Analysis of Histamine", Anal. Biochem., 57, 383-394 (1974).
Blood is drawn from allergic donors (chosen on the basis of adequate histamine release induced by a challenge), using standard venipuncture methods, into Vacutainers with EDTA in water as anticoagulant. The blood samples are placed briefly on a rotary mixer. The blood is mixed with Hespan (hydroxy ethyl starch, 0.5 ml per 1.0 ml of blood), the tube inverted several times to mix and then left undisturbed at room temperature until a sharp separation is observed between the settled red cells and the leukocyte and platelet-rich plasma. This usually occurs within 35-45 minutes.
The plasma fraction is removed and centrifuged for 12 minutes at 4°C at 1050 RPM (100 Xg). The platelets remain in the plasma and are discarded. The pelleted leukocytes are shaken gently to disrupt the cell button and washed twice with HA buffer containing 0.005 M EDTA and resuspended in HACM buffer to approximately one-quarter the original blood volume. A sample is prepared for Hematology, where a total white blood cell and platelet count is done using a Coulter Counter.
Aliquots (0.1 ml) of cells are added to triplicate assay tubes containing 0.4 ml of either 6% perchloric acid (for total histamine content), vehicle control (for spontaneous release), or drug. The tubes are incubated at room temperature for 8 minutes, and then placed in a 37°C water bath for 2 more minutes. Buffer or challenge agents (at 37°C) are added to the tubes and they are incubated for an additional 45 minutes at 37°C in a shaking water bath. The tubes are then spun at 2000 RPM (1200 g) for 3 minutes to pellet the cells and the supernatants are removed and assayed for histamine by the fluorometric method.
A 300 µM stock solution of each test compound is prepared in distilled water, using 0.5 ml DMSO/100 ml and/or 0.2 ml of 1N NaOH or HCl and/or heat to aid in dissolution. Five ml of the stock solution is diluted (1:2) with 5 ml of two times concentrated HACM buffer to yield the stock working concentration of 150 µM. When added to the cells and stimulus, a final test concentration of 100 µM drug results. Further dilutions are made with HACM buffer for 33, 10, 3.3, 1.0 µM, etc.
Short ragweed and house dust extracts (Greer Laboratories, Inc.) are supplied as aqueous extracts in stock concentrations of 40,000 and 10,000 protein nitrogen units per milliliter (PNU/ml), respectively. Aqueous solutions of anti-IgE antisera (rabbit-raised antibody) are purchased from Dako via Accurate Chemicals. The aqueous solutions of ragweed, house dust, and anti-IgE are diluted 1:2 with two times concentrated HACM and then further diluted with HACM to yield final stock concentrations of 6000 PNU/ml for ragweed and house dust and 1:50 dilution for the anti-IgE antisera. Further dilutions for working solutions are made in HACM buffer. All stock and working solutions are stored at 4°C. Working solutions comprise 1/6 of the final volume in the cell reaction, therefore, working solutions of challenge agents are made up six times the required final concentration.
In each experiment, cells are challenged according to the previously determined sensitivity of that donor to the particular challenge agent. Short ragweed and house dust concentrations are expressed in PNU/ml, and anti-IgE antisera is expressed as dilutions, e.g., IE-5 (1:100,000), 3E-5 (1:30,000), and IE-4 (1:10,000).
The total histamine concentration in the "total" (acid-treated) samples must be 15 ng/ml to be acceptable. […]

[1] = tested on: cellular 5-cyclooxygenase; experiment: ARBC whole cell cyclooxygenase assay (PGF2α formation in RBL-1 cells); format: cell-based, rat; set-up: key: N inactive at screening concentration; settings: A23187 stimulated, PGF2α by RIA
Protocol: (§1) ARBL/ARBC Whole Cell 5-Lipoxygenase and Cyclooxygenase Assays The rat basophilic Leukemia cell line (RBL-1) was obtained from the American Type Culture Collection (Rockville, MD). Radioimmunoassay (RIA) kits of LTB₄ and PGF2α were obtained from Amersham (Arlington Heights, IL) and Seragen (Boston, MA), respectively. RBL-1 cells are grown in suspension culture in Eagle's minimum essential medium supplemented with 12% fetal bovine serum at 37°C in an incubator supplied with air-5% carbon dioxide. Cells are harvested by centrifugation. They are washed with cold phosphate buffered saline pH 7.4 (PBS; NaCl, 7.1 g; Na₂HPO₄, 1.15 g; KH₂PO₄, 0.2 g; and KCl, 0.2 g/l). Cells are finally suspended in PBS containing 1.0 mM calcium at a density of 2 x 10⁶ cells/ml. […] Calcium ionophore A23187 (5 µM) is added and cells are incubated for seven minutes at 37°C. The reaction is stopped by chilling the tubes on ice for ten minutes. Cells are separated by centrifugation and the supernatant is stored at -20°. Aliquots (100 µl) are analyzed for LTB₄ and PGF2α using radioimmunoassay kits as provided by the supplier. Table 1 contains biochemical data obtained from this whole cell assay as IC₅₀s which are calculated as the amount of test compound causing 50% inhibition of LTB₄ or PGF2α formation.

cellular 5-lipoxygenase = target: T1, cellular 5-lipoxygenase (Rattus norvegicus, UniProt P12527); experiment: ARBL whole cell 5-lipoxygenase assay (LTB₄ formation in RBL-1 cells); format: cell-based; settings: A23187 stimulated, LTB₄ by RIA, read-out: ARBL Percent inhibition of cellular 5-lipoxygenase at 16 µM
T1 construct: ARBL/ARBC Whole Cell 5-Lipoxygenase and Cyclooxygenase Assays; host or cells: RBL-1 (rat basophilic leukemia) cells
T1 sequence (P12527 1-673): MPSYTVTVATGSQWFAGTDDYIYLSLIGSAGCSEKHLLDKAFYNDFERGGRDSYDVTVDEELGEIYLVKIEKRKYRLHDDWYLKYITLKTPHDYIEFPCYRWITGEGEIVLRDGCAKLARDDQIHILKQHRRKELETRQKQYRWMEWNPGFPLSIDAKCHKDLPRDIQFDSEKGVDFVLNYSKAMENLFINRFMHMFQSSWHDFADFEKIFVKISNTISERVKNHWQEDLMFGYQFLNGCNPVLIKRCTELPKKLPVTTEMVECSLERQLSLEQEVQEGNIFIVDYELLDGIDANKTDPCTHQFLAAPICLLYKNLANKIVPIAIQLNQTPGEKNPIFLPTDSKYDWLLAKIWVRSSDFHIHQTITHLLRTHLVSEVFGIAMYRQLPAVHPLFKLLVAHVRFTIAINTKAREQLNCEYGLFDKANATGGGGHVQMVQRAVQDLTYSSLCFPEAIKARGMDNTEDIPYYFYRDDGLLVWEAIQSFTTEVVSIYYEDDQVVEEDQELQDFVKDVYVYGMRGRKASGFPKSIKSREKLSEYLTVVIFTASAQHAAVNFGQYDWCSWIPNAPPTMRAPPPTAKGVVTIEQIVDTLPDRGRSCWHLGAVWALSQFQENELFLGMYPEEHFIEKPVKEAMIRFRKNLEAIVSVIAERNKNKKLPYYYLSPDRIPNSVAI
Protocol: as §1

[2] = tested on: carrageenan footpad edema; experiment: Carrageenan-induced rat foot paw edema-2 (CFE-2) assay; format: in vivo; settings: dosed one hour before carrageenan, edema measured five hours after
Protocol: Carrageenan-Induced Rat Foot Paw Edema-2 (CEF-2) Assay: Protocol
Carrageenan solution (1% w/v) is prepared by dissolving 100 mg carrageenan (Marine Colloidal Div., Springfield, NJ) in 10 ml of sterile saline (0.9%) solution (Travenol). The solution is vortexed for 30 to 45 minutes. Animals are dosed with compound one hour before carrageenan challenge. Foot paw edema is induced by injecting 0.10 ml of the 1% carrageenan subcutaneously into the plantar portion of the right hind paw of each rat under light anesthesia. Initial foot paw volume is measured immediately following carrageenan challenge using mercury plethysmography (Buxco Electronics). Edemia is measured five hours after carrageenan. The difference between the five-hour and the initial paw volume is expressed as delta edema. The delta edema for each test group of animals is used to calculate the percent inhibition of edema achieved by the compound at the test dose compared with the vehicle control group. The ID₄₀ (the dose at which swelling is inhibited by 40%) is calculated by probit analysis for the dose at which 40 percent inhibition occurs.

[3] = 2-thioxo-4-oxazolidinone series

COc1ccc(C=C2OC(=S)NC2=O)cc1OC [Example 5, 5-[(3,4-Dimethoxyphenyl)methylene]-2-thioxo-4-oxazolidinone]
inhibition at 33 µM (human basophils; [3]): 43%

COc1cc(C=C2OC(=S)NC2=O)cc(OC)c1O [Example 6, 5-[(4-Hydroxy-3,5-dimethoxyphenyl)methylene]-2-thioxo-4-oxazolidinone]
inhibition at 33 µM (human basophils; [3]): 89%

COc1cc(C=C2SC(=O)NC2=O)cc(OC)c1O [Example 1, 5-[(4-Hydroxy-3,5-dimethoxyphenyl)methylene]-2,4-thiazolidinedione]
inhibition at 33 µM (human basophils; thiazolidinedione series): 60%

COc1cc(C=C2OC(=S)NC2=O)ccc1O [Example 4, 5-[(4-Hydroxy-3-methoxyphenyl)methylene]-2-thioxo-4-oxazolidinone]
inhibition at 33 µM (human basophils; [3]): 77%

COc1cc(C=C2OC(=S)NC2=O)cc(OC)c1OC [Example 10, 2-Thioxo-5-[(3,4,5-trimethoxyphenyl)methylene]-4-oxazolidinone]
inhibition at 33 µM (human basophils; [3]): 76%

CC(C)(C)c1cc(C=C2OC(=O)NC2=O)cc(C(C)(C)C)c1O [Example 15]
ARBC Percent inhibition of cellular 5-cyclooxygenase at 16 µM [1]: 89% | inhibition at 16 µM (cellular 5-lipoxygenase): 95% | CFE Percent inhibition of carrageenan footpad edema (CFE) test ([2]; dose 1 mg/kg): 18.5 (1) % | CFE Percent inhibition of carrageenan footpad edema (CFE) test ([2]; dose 3 mg/kg): 23.5 (3) % | CFE Percent inhibition of carrageenan footpad edema (CFE) test ([2]; dose 10 mg/kg): 36.8 (10) % | CFE Percent inhibition of carrageenan footpad edema (CFE) test ([2]; dose 30 mg/kg): 39.4 (30) %

COc1cc(C=C2OC(=S)NC2=O)cc(Br)c1O [Example 8, 5-[(3-Bromo-4-hydroxy-5-methoxyphenyl)methylene]-2-thioxo-4-oxazolidinone]
HHB % Inhibition of Histamine Release at 33 µM (human basophils; [3]): *

COc1cc(C=C2SC(=O)NC2=O)ccc1O [Example 3]
inhibition at 33 µM (human basophils; thiazolidinedione series): 81%

O=C1NC(=S)OC1=Cc1ccc(O)c(Br)c1 [Example 13, 5-[(3-Bromo-4-hydroxyphenyl)methylene]-2-thioxo-4-oxazolidinone]
inhibition at 33 µM (human basophils; [3]): 66%

CC(C)(C)c1cc(C=C2OC(=S)NC2=O)cc(C(C)(C)C)c1O [Example 14]
ARBC Percent inhibition of cellular 5-cyclooxygenase at 16 µM [1]: 86% | inhibition at 16 µM (cellular 5-lipoxygenase): 92% | CFE Percent inhibition of carrageenan footpad edema (CFE) test ([2]; dose 1 mg/kg): 44.1 (1) % | CFE Percent inhibition of carrageenan footpad edema (CFE) test ([2]; dose 3 mg/kg): 41.1 (3) % | CFE Percent inhibition of carrageenan footpad edema (CFE) test ([2]; dose 10 mg/kg): 32.1 (10) % | CFE Percent inhibition of carrageenan footpad edema (CFE) test ([2]; dose 30 mg/kg): 40.4 (30) %

CC(C)(C)c1cc(C=C2SC(=O)NC2=O)cc(C(C)(C)C)c1O [Example 2, 5-[[3,5-Bis(1,1-dimethylethyl)-4-hydroxyphenyl]methylene]-2,4-thiazolidinedione]
ARBC Percent inhibition of cellular 5-cyclooxygenase at 16 µM [1]: 95% | inhibition at 33 µM (human basophils; thiazolidinedione series): 49% | inhibition at 16 µM (cellular 5-lipoxygenase): 100% | CFE Percent inhibition of carrageenan footpad edema (CFE) test ([2]; dose 1 mg/kg): 31.8 (1) % | CFE Percent inhibition of carrageenan footpad edema (CFE) test ([2]; dose 3 mg/kg): 39.8 (3) % | CFE Percent inhibition of carrageenan footpad edema (CFE) test ([2]; dose 10 mg/kg): 53.7 (10) % | CFE Percent inhibition of carrageenan footpad edema (CFE) test ([2]; dose 30 mg/kg): 58.8 (30) %

COc1cc(OC)c(OC)cc1C=C1OC(=S)NC1=O [Example 9, 2-Thioxo-5-[(2,4,5-trimethoxyphenyl)methylene]-4-oxazolidinone]
HHB % Inhibition of Histamine Release at 33 µM (human basophils; [3]): *

COc1cc(C=C2OC(=O)NC2=O)cc(OC)c1O [Example 16, 5-[(4-Hydroxy-3,5-dimethoxyphenyl)methylene]-2,4-oxazolidinedione]
ARBC Percent inhibition of cellular 5-cyclooxygenase at 16 µM [1]: N^(4) | inhibition at 16 µM (cellular 5-lipoxygenase): 67%
